How the values were obtained:
SKBR3-hrGFP-LC3B cells = test: High content screening of GFP-LC3B puncta; type: cell-based; settings: 100 nM, 1 µM, 10 µM; 6 h and 24 h
Excerpt: One hundred of the predicted best binding ATG4B inhibitors were obtained to test for effects on GFP-LC3B puncta levels in SKBR3-hrGFP-LC3B breast cancer cells cultured in standard fed conditions. Based on our observations using ATG4B-siRNAs (Figs 2a,b and S1) and several reports in the literature[22]–[24], we expected that reduced ATG4B function would primarily affect LC3B-II recycling and lead to an increase in GFP-LC3B puncta, whereas complete loss of ATG4B would also affect pro-LC3B processing and lead to a decrease in GFP-LC3B puncta formation. Compounds were initially tested at three concentrations (100 nM, 1 µM and 10 µM) and two treatment periods (6 hour and 24 hour). In parallel, all compounds were tested at a single concentration (8 µM) in a FRET-LC3 ATG4B enzymatic assay developed in our group. […] Calculations predicted that compound 1–4 bound to closed binding site#1 (Fig. S2) while 2–22 and 3–22 bound to open site#2 (Fig. S3) and 4–6 and 4–28 bound to closed site#2 (Figs S4 and S5). Of these, compounds 1–4 and 4–6 are biphenols which are potentially metabolically unstable by oxidation, sulfation and glucuronidation pathways. Compound 2–22 and 3–22 have electrophilic sites, which are drawbacks for drug development as they are prone to metabolic transformation and could lead to covalent bond formation with biological nucleophiles. […] It was nonetheless selected for further follow-up based on its favorable structural characteristics and resemblance to the known drugs and lysosomal-related autophagy inhibitors, chloroquine and hydroxychloroquine, and to the styrylquinoline, MK-571, a selective antagonist of leukotriene D4 known to have an excellent pharmacokinetic profile in terms of oral bioavailability and long duration of action.
High-throughput fluorescence microscopy was performed at room-temperature on the InCell Analyzer 1000 (GE Healthcare) using the 20X objective to view Hoescht 33342 nuclear stain, ethidium homodimer (EthD1) viability stain and GFP-LC3 puncta in SKBR3-hrGFP-LC3B cells. Thirty min prior to imaging, cells were incubated at 37 °C with 4 µM Hoechst 33342 (Invitrogen) and 0.5 µM EthD1 (Invitrogen). Image analysis was performed using InCell Developer Toolbox (Ver. 1.6, GE Healthcare). Individual cells were identified with segmentation of nuclei based on Hoechst 33342 staining. Cell borders were determined by defining a radius around the nucleus. Cells were classified as “dead” if the defined cell overlapped by at least 50% with the EthD1 signal. The number of GFP-LC3 puncta within each live cell was then counted, as well as the number of live cells with at least 5 puncta. Puncta were defined as GFP positive structures of at least 1 pixel with a form factor (estimate of circularity) of at least 0.4.

ATG4B [1] = target: T1, ATG4B (Homo sapiens, UniProt Q9Y4P1); test: Mass spectrometry ATG4B enzymatic assay with GFP-LC3-YFP substrate
T1 sequence (Q9Y4P1 1-393): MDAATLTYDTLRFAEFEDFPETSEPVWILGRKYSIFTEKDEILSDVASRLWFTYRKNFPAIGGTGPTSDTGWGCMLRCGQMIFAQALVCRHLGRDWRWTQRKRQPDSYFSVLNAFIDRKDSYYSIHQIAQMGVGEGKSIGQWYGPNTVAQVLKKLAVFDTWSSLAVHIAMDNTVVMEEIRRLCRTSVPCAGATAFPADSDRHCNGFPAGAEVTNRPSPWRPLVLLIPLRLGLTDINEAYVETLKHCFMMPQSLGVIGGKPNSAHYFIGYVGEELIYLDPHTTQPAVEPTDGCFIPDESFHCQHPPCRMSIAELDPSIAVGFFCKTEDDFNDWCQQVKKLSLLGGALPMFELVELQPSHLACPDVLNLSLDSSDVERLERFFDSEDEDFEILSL
Protocol: The sample was centrifuged at 10000 × g during 1 min. The supernatant was removed. This operation was done two more times. […] 15 µL of this ATG4B solution were mixed with the 20 µL rinsed immobilized TCEP solution. The solution was incubated on a carousel at 4 °C for 1 h. […] Kinetic determination was performed in triplicate in 1 dram HPLC vials using 350 µL glass inserts. […] The analysis of the m/z distribution signal resulting from the protein substrate was performed by Agilent MassHunter Workstation software elucidating proteins 20000–80000 Da between 700 m/z and 1800 m/z. […] The amount of cleavage was determined by calculating the value of the formula A/(A + B) where A was the peak height of the 27885 Da residue and B was the peak height of the 72904 Da residue. Each experiment was assessed with a concomitant parallel negative control.

[2] = Stability of 4-28 under irradiation, HPLC analysis; type: physicochemical
Excerpt: 4–28 is a 4-aminostyrylquinoline, a structural class known to be photo-reactive[51]. In preliminary assays under standard conditions with the reducing agent TCEP present, we noted the formation of isomers and adducts between 4–28 and TCEP (Fig. 3b). Thus, to confirm the ability of 4–28 to inhibit ATG4B activity, we used a mass spectrometry assay using a GFP-LC3-YFP substrate[36] and by using activation of the enzyme with TCEP on solid support, which can be easily removed after the activation and prior to incubation with the inhibitor. […] (Fig. 3d). […] By these two assays, we confirmed the ability of 4–28 to inhibit ATG4B catalytic activity.
In our case, with incubation of 4–28 for 1 h under UV-irradiation, the formation of the cis compound was observed by HPLC and ^1H NMR along with other compounds consistent with further electrocyclization (Figs 3b and S6 and S7). Given these observed instabilities and reactivity, a structure-activity relationship study was initiated with an aim to identify an analog with improved stability and enhanced potency against ATG4B and with a pharmacokinetic profile suitable to support in vivo testing.

MCF7 cells = test: LC3B-based autophagy flux assay (western blot) in MCF7 cells; type: cell-based; settings: with and without bafilomycin A1
Excerpt: While the effects observed were modest, this observation is consistent with reduced LC3B-II recycling and reduced autophagic flux.

ATG4B [3] = target: T1, ATG4B; test: FRET-LC3 ATG4B enzymatic assay; type: biochemical; settings: read-out: inhibition in the screening FRET assay
ATG4B [4] = target: T1, ATG4B; test: Fluorimetric ATG4B enzymatic assay with fluorescent peptide substrate pim-FG-PABA-AMC; type: biochemical; settings: for IC50: pim-FG-PABA-AMC substrate, read-out: IC50, fluorimetric assay with fluorogenic peptide substrate
Protocol: 100 μL of immobilized TCEP in deionized water was diluted in 2.50 mL of buffer (50 mM Tris, 35 mM NaCl, pH = 8). The sample was centrifuged at 10,000 × g during 1 min. The supernatant was removed. This operation was done two more times. […] The solution was incubated on a carousel at 4 °C for 1 h. This solution was then diluted with 2.06 mL of buffer (50 mM Tris, 35 mM NaCl, 5 mM EDTA, pH 8), centrifuged at 10,000 × g during 1 min and the supernatant, containing the activated ATG4B (1 µM), was kept. A 96-well all-black plate was loaded where each well was charged with 55 µL of inhibitor at different concentrations (0 µM to 100 µM or 200 µM) in buffer/DMSO 41:3 (v/v) and 20 μL of enzyme or buffer were dispensed using a dispenser (Biotek). Plate was incubated for 30 min. A single read was done using excitation and emission wavelengths of 350/450 nm. 25 µL of peptide substrate (pim-FG-PABA-AMC)[52] (final assay concentration 100 µM) was dispensed using a dispenser (Biotek). Experiments were performed in triplicate except when it is mentioned. Fluorescent reads were performed using the Synergy 4 (Biotek) at 25 °C using excitation and emission wavelengths of 350/450 nm every 15 min for 2 h.

| SMILES | effect on GFP-LC3 puncta in primary screen (SKBR3-hrGFP-LC3B cells) | IC50 (ATG4B [4]) | also measured |
| --- | --- | --- | --- |
| Cc1cc(Cc2cc(C)c(O)c(CO)c2)cc(CO)c1O [1–4] | increase in GFP-LC3 puncta | – | – |
| COc1cccc(NC(=O)C(=O)C(C(=O)c2ccccc2F)C2OC(=O)c3ccccc32)c1 (stereo not shown) [2–22] | increase in GFP-LC3 puncta | – | – |
| O=C(Nc1ccc([N+](=O)[O-])cc1)C(=O)C(C(=O)c1ccccc1F)C1OC(=O)c2ccccc21 (stereo not shown) [3–22] | increase in GFP-LC3 puncta | – | – |
| CCCCN(CCC(=O)O)c1ccc(/C=C/c2ccnc3ccccc23)cc1 [4–28] | decrease in GFP-LC3 puncta | 79 ± 9 µM | IC50 (ATG4B [1]): 116 ± 14 µM; cis-isomer formed under assay conditions ([2]; 1 irradiation at 350 nm each 15 min for 2 h): 4%; stability under UV irradiation ([2]; 1 h UV irradiation, HPLC and 1H NMR): instability under UV irradiation; endogenous LC3B-II (MCF7 cells): accumulation of LC3B-II that was not additive to bafilomycin A1; inhibition at 8 µM (ATG4B [3]): 43% |
| CCOC(=O)CCSC(SCCC(=O)OCC)c1ccc(/C=C/c2ccnc3cc(Cl)ccc23)cc1 [Compound 68] | – | > 100 µM | – |
| C=CCSC(SCC=C)c1ccc(/C=C/c2ccnc3cc(Cl)ccc23)cc1 [Compound 69] | – | > 100 µM | – |
| CCN(CCO)CCCC(C)Nc1ccnc2cc(Cl)ccc12 (stereo not shown) [hydroxychloroquine, reference compound] | – | – | inhibition of activity of purified ATG4B (ATG4B [4]; up to 200 µM): did not show significant inhibition |
